We go through 23 molecules from US20260365647A1, “AKT1 MODULATORS” (Alterome Therapeutics, Inc., priority 2022, published 2026).

Molecules are shown by their SMILES.

T1 sequence (P31749 whole entry E17K): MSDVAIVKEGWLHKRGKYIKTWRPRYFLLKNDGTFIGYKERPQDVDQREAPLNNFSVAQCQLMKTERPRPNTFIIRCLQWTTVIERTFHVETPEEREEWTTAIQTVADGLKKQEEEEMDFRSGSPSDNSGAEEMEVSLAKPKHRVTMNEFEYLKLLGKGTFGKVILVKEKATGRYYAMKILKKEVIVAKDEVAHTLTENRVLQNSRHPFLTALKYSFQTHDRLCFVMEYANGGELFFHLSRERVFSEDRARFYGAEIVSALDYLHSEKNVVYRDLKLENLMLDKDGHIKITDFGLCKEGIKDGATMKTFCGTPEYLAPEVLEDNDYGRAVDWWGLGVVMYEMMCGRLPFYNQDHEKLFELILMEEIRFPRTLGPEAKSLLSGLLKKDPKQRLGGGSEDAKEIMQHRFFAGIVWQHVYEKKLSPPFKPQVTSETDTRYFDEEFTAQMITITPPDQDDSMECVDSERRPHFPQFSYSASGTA

The assay has as its target T1, AKT1-E17K (Homo sapiens, UniProt P31749, E17K).
T1 construct: host or cells: HEK-293 (ATCC CRL-1573)
Description: NanoBRET Target Engagement (TE) Assay. The assay is classed as cell-based. From the text:
The NanoBRET™ Target Engagement (TE) Intracellular Kinase Assays are based on the NanoBRET™ System (Promega Corporation), an energy transfer technique designed to measure molecular proximity in living cells. The NanoBRET™ TE Assays measure the apparent affinity of test compounds by competitive displacement of the NanoBRET™ tracer compound, which is a cell permeable molecule engineered to be reversibly bound to a NanoLuc® luciferase-kinase fusion expressed in cells. For compound screening, when a test compound binds to the selected kinase, the BRET signal is attenuated. […] All cells were evaluated for viability prior to transfection and optimization of the transfection was done prior to experimentation. […] Following transfection, cells were washed and resuspended in Opti-MEM. NanoBRET assays were performed in white, 384-well plates (Corning) at a density of […]. All example compounds were prepared as concentrated stock solutions in DMSO (Sigma-Aldrich). Compounds are dissolved in DMSO to make 10 mM stock solution. […] A Labcyte ECHO 550 compound dispenser was used to facilitate compound transfer directly to cells. Cells were equilibrated for 2 hr with energy transfer probes and example compound prior to BRET measurements. […] For target engagement analysis, the energy transfer probes were added to the cells at concentrations optimized for the target in question (AKT E17K). Following compound incubation, NanoBRET NanoGlo Substrate (Promega Cat #N157D) and Extracellular Nanoluc Inhibitor (Promega Cat #N235C) was added according to the manufacturer's recommended protocol, and luminescence was measured on Envision Reader (Perkin Elmer) Multimode Luminometer equipped with 450 nmBPfilter (donor) and 600 nmLPfilter (acceptor), using 0.5 s integration time. Milli-BRET units (mBU) are calculated by multiplying the raw BRET values by 1000. Apparent tracer affinity values (EC50) were determined using the sigmoidal dose-response (variable slope). Competitive displacement data were then plotted and data were fit to determine the EC50 value for each example compound.
In general terms: Bioluminescence resonance energy transfer reports proximity on the nanometre scale.
A word on the IC50: it is the midpoint of a concentration-inhibition curve. Low values mean higher potency, high ones lower potency. For `Nc1ncccc1-c1nc2ccc(-c3ccccc3)nc2n1-c1ccc(CN2CCC3(CC2)CCN(c2ccc(C=O)c(O)c2)CC3)cc1` [Example 78, 4-(9-(4-(2-(2-Aminopyridin-3-yl)-5-phenyl-3H-imidazo[4,5-b]pyridin-3-yl)benzyl)-3,9-diazaspiro[5.5]undecan-3-yl)-2-hydroxybenzaldehyde], the IC50 is 0.06 to 0.6 µM.
Regarding `Nc1ncccc1-c1nc2ccc(-c3ccccc3)nc2n1-c1ccc(CN2CCC(NC(=O)c3cccc(C=O)c3O)CC2)cc1` [Example 49, N-(1-(4-(2-(2-aminopyridin-3-yl)-5-phenyl-3H-imidazo[4,5-b]pyridin-3-yl)benzyl)piperidin-4-yl)-3-formyl-2-hydroxybenzamide], the IC50 fell in the range of 0.015 to 0.06 µM.
The molecule `Nc1ncccc1-c1nc2ccc(-c3ccccc3)nc2n1-c1ccc(CN2CCC(Nc3cccc(C=O)c3O)CC2)cc1` [Example 50, 3-((I-(4-(2-(2-Aminopyridin-3-yl)-5-phenyl-3H-imidazo[4,5-b]pyridin-3-yl)benzyl)piperidin-4-yl)amino)-2-hydroxybenzaldehyde] displayed an IC50 of 0.015 to 0.06 µM.
Turning to `Nc1ncccc1-c1nc2ccc(-c3ccccc3)nc2n1-c1ccc(CN2CC[C@]3(CCN(C(=O)c4ccc(C=O)c(O)c4)C3)C2)cc1` [Example 102, (S)-4-(7-(4-(2-(2-Aminopyridin-3-yl)-5-phenyl-3H-imidazo[4,5-b]pyridin-3-yl)benzyl)-2,7-diazaspiro[4.4]nonane-2-carbonyl)-2-hydroxybenzaldehyde], the IC50 fell in the range of 0.06 to 0.6 µM.
Next, `CN(Cc1ccc(-n2c(-c3cccnc3N)nc3ccc(-c4ccccc4)nc32)cc1)c1ccc(O)c(C=O)c1` [Example 18, 5-((4-(2-(2-Aminopyridin-3-yl)-5-phenyl-3H-imidazo[4,5-b]pyridin-3-yl)benzyl)(methyl)amino)-2-hydroxybenzaldehyde]: more than 0.6 µM; `Nc1ncccc1-c1nc2ccc(C3=CCOCC3)nc2n1-c1ccc(CN2CCN(C(=O)c3ccc(O)c(C=O)c3)CC2)cc1` [Example 29, 5-(4-(4-(2-(2-Aminopyridin-3-yl)-5-(3,6-dihydro-2H-pyran-4-yl)-3H-imidazo[4,5-b]pyridin-3-yl)benzyl)piperazine-1-carbonyl)-2-hydroxybenzaldehyde]: 0.06 to 0.6 µM.
As for `Nc1ncccc1-c1nc2ccc(-c3ccccc3)nc2n1-c1ccc(CN2CCCN(c3ccc(C=O)c(O)c3)CC2)cc1` [Example 120, 4-(4-(4-(2-(2-Aminopyridin-3-yl)-5-phenyl-3H-imidazo[4,5-b]pyridin-3-yl)benzyl)-1,4-diazepan-1-yl)-2-hydroxybenzaldehyde], the IC50 was 0.015 to 0.06 µM.
Next, `Nc1ncccc1-c1nc2ccc(-c3ccccc3)nc2n1-c1ccc(CN2C[C@@H]3C[C@H]2CN3C(=O)c2ccc(O)c(C=O)c2)cc1` [Example 121, 5-((1S,4S)-5-(4-(2-(2-Aminopyridin-3-yl)-5-phenyl-3H-imidazo[4,5-b]pyridin-3-yl)benzyl)-2,5-diazabicyclo[2.2.1]heptane-2-carbonyl)-2-hydroxybenzaldehyde]: 0.06 to 0.6 µM; `Nc1ncccc1-c1nc2ccc(-c3ccccc3)nc2n1-c1ccc(CN2CCC(Nc3cccc(O)c3C=O)CC2)cc1` [Example 51, 2-((1-(4-(2-(2-Aminopyridin-3-yl)-5-phenyl-3H-imidazo[4,5-b]pyridin-3-yl)benzyl)piperidin-4-yl)amino)-6-hydroxybenzaldehyde]: 0.06 to 0.6 µM; `C[C@H]1CN(Cc2ccc(-n3c(-c4cccnc4N)nc4ccc(-c5ccccc5)nc43)cc2)CCN1C(=O)c1ccc(C=O)c(O)c1` [Example 106, (S)-4-(4-(4-(2-(2-Aminopyridin-3-yl)-5-phenyl-3H-imidazo[4,5-b]pyridin-3-yl)benzyl)-2-methylpiperazine-1-carbonyl)-2-hydroxybenzaldehyde]: more than 0.6 µM.
Next, `Nc1ncccc1-c1nc2cccnc2n1-c1ccc(CNC(=O)c2ccc(C=O)c(O)c2)cc1` [Example 3, N-(4-(2-(2-Aminopyridin-3-yl)-3H-imidazo[4,5-b]pyridin-3-yl)benzyl)-4-formyl-3-hydroxybenzamide]: more than 0.6 µM; `Nc1ncccc1-c1nc2ccc(C3=CCOCC3)nc2n1-c1ccc(CN2CCN(C(=O)c3ccc(C=O)c(O)c3)CC2)cc1` [Example 30, 4-(4-(4-(2-(2-Aminopyridin-3-yl)-5-(3,6-dihydro-2H-pyran-4-yl)-3H-imidazo[4,5-b]pyridin-3-yl)benzyl)piperazine-1-carbonyl)-2-hydroxybenzaldehyde]: 0.06 to 0.6 µM.
Next, `N#Cc1cccc(-c2ccc3nc(-c4cccnc4N)n(-c4ccc(CN5CCN(C(=O)c6ccc(C=O)c(O)c6)CC5)cc4)c3n2)c1` [Example 35, 3-(2-(2-Aminopyridin-3-yl)-3-(4-((4-(4-formyl-3-hydroxybenzoyl)piperazin-1-yl)methyl)phenyl)-3H-imidazo[4,5-b]pyridin-5-yl)benzonitrile]: 0.06 to 0.6 µM; `Nc1ncccc1-c1nc2ccc(-c3ccccc3)nc2n1-c1ccc(CN2CCC3(CC2)CCN(C(=O)c2ccc(C=O)c(O)c2)CC3)cc1` [Example 152, 4-(9-(4-(2-(2-aminopyridin-3-yl)-5-phenyl-3H-imidazo[4,5-b]pyridin-3-yl)benzyl)-3,9-diazaspiro[5.5]undecane-3-carbonyl)-2-hydroxybenzaldehyde]: 0.06 to 0.6 µM.
In turn, `Nc1ncccc1-c1nc2ccc(-c3ccccc3)nc2n1-c1ccc(CN2CC3(CCN(C(=O)c4ccc(O)c(C=O)c4)CC3)C2)cc1` [Example 95, 5-(2-(4-(2-(2-Aminopyridin-3-yl)-5-phenyl-3H-imidazo[4,5-b]pyridin-3-yl)benzyl)-2,7-diazaspiro[3.5]nonane-7-carbonyl)-2-hydroxybenzaldehyde] returned an IC50 of 0.06 to 0.6 µM.
Next, `Nc1ncccc1-c1nc2ccc(-c3cccc(Cl)c3)nc2n1-c1ccc(CN2CCN(C(=O)c3ccc(C=O)c(O)c3)CC2)cc1` [Example 43, 4-(4-(4-(2-(2-Aminopyridin-3-yl)-5-(3-chlorophenyl)-3H-imidazo[4,5-b]pyridin-3-yl)benzyl)piperazine-1-carbonyl)-2-hydroxybenzaldehyde]: 0.06 to 0.6 µM.
Next, `Nc1ncccc1-c1nc2ccc(-c3ccccc3)nc2n1-c1ccc(CN2CCCCC(NC(=O)c3ccc(C=O)c(O)c3)C2)cc1` (centres unmarked) [Example 118, N-(1-(4-(2-(2-Aminopyridin-3-yl)-5-phenyl-3H-imidazo[4,5-b]pyridin-3-yl)benzyl)azepan-3-yl)-4-formyl-3-hydroxybenzamide]: more than 0.6 µM; `Nc1ncccc1-c1nc2ccc(-c3ccccc3)nc2n1-c1ccc(CN2CCC3(CC2)CN(C(=O)c2ccc(O)c(C=O)c2)C3)cc1` [Example 67, 5-(7-(4-(2-(2-Aminopyridin-3-yl)-5-phenyl-3H-imidazo[4,5-b]pyridin-3-yl)benzyl)-2,7-diazaspiro[3.5]nonane-2-carbonyl)-2-hydroxybenzaldehyde]: 0.06 to 0.6 µM.
Next, `Nc1ncccc1-c1nc2ccc(-c3ccccc3)nc2n1-c1ccc(CN2CC3CCC2CN3c2ccc(C=O)c(O)c2)cc1` (centres unmarked) [Example 127, 4-(5-(4-(2-(2-Aminopyridin-3-yl)-5-phenyl-3H-imidazo[4,5-b]pyridin-3-yl)benzyl)-2,5-diazabicyclo[2.2.2]octan-2-yl)-2-hydroxybenzaldehyde]: 0.06 to 0.6 µM; `Nc1ncccc1-c1nc2ccc(-c3ccccc3)nc2n1-c1ccc(CN2CCCC(NC(=O)c3ccc(O)c(C=O)c3)CC2)cc1` (centres unmarked) [Example 115, N-(1-(4-(2-(2-Aminopyridin-3-yl)-5-phenyl-3H-imidazo[4,5-b]pyridin-3-yl)benzyl)azepan-4-yl)-3-formyl-4-hydroxybenzamide]: 0.015 to 0.06 µM.
On to `Nc1ncccc1-c1nc2ccc(-c3ccc(Cl)cc3)nc2n1-c1ccc(CN2CCN(c3ccc(C=O)c(O)c3)CC2)cc1` [Example 146, 4-(4-(4-(2-(2-aminopyridin-3-yl)-5-(4-chlorophenyl)-3H-imidazo[4,5-b]pyridin-3-yl)benzyl)piperazin-1-yl)-2-hydroxybenzaldehyde], for which the IC50 was more than 0.6 µM.
Next, `Nc1ncccc1-c1nc2ccc(-c3ccccc3)nc2n1-c1ccc(CN2CCC3(CCN(c4ccc(C=O)c(O)c4)CC3)C2)cc1` [Example 85, 4-(2-(4-(2-(2-Aminopyridin-3-yl)-5-phenyl-3H-imidazo[4,5-b]pyridin-3-yl)benzyl)-2,8-diazaspiro[4.5]decan-8-yl)-2-hydroxybenzaldehyde]: 0.06 to 0.6 µM; `Nc1ncccc1-c1nc2ccc(-c3ccccc3)nc2n1-c1ccc(CN2CC[C@]3(CCN(c4ccc(C=O)c(O)c4)C3)C2)cc1` [Example 103, (S)-4-(7-(4-(2-(2-Aminopyridin-3-yl)-5-phenyl-3H-imidazo[4,5-b]pyridin-3-yl)benzyl)-2,7-diazaspiro[4.4]nonan-2-yl)-2-hydroxybenzaldehyde]: 0.06 to 0.6 µM.
